Laboratory results reported in patent publication EP2878292A2, “Application of cosmetic compositions for the inactivation and/or elimination of skin mites” (Henkel AG & Co. KGaA, priority 2013, dated 2015).

System: Haustaubmilben
Type: in vivo
Procedure: Die zu testende Substanz wurde mit Wasser auf die vorgesehene Einsatzkonzentration verdünnt (s.u.). Haustaubmilben, die aufgrund ihrer großen Ähnlichkeit als Vergleich zu Haarbalgmilben (Demodex) verwendet werden, wurden aus ihrem Futter isoliert und auf 1,5 cm x 1,5 cm große Filterpapierstücke übertragen. Etwa 100 Milben je Ansatz wurden mit 50 µl der zu testenden Substanzen in den vorhergesehenen Verdünnungen betropft. Die überschüssige Flüssigkeit wurde nach 10 Sekunden abgesaugt. Die noch feuchten Filterpapiere mit den Milben wurden nach der Behandlung in eine Petrischale gebracht, die mit einem Deckel und einer Umrandung mit Paraffin verschlossen wurden, um sicherzustellen, dass evtl. überlebende Milben nicht entweichen können. Die Milben können nach Beginn einer Behandlung - gleichgültig mit welchem Mittel - unbeweglich werden, sich jedoch später wieder erholen und ihre Beweglichkeit zumindest für kurze Zeit wiedererlangen. Andererseits ist es auch möglich, dass Milben in den ersten Stunden nach einer Behandlung noch vital erscheinen, jedoch bereits so stark geschädigt sind, dass sie innerhalb eines Tages bis zu 2-3 Tagen sterben. Daher wurden die Petrischalen für einen Tag aufbewahrt, und die Milben dann erst auf ihre Vitalität bewertet.
Die Anzahl der toten und lebenden Milben wurde bestimmt und in % der Sterberate umgerechnet.
Die Versuche wurden zweifach durchgeführt. […]

SMILES: CCCCCCCCC(O)CO (centres unmarked) [Symclariol, 1,2-Decanediol]
- Inaktivierung bzw. Eliminierung von Milben (conclusion in words drawn from the test at 2%): wirksam
- Sterberate (Mittelwert) (house dust mite, in vivo, topical, 24 h): 10,9%
